The text below walks through data of PubChem BioAssay (NCI).

Test systems include EKVX NSCLC; UACC-62 melanoma; NCI-H226 lung; HS 578T breast; SF-295 CNS; HOP-62 NSCLC; SF-539 CNS; TK-10 renal; MOLT-4 leukemia; MCF7 breast; LOX IMVI melanoma; COLO 205 colon; U251 CNS; OVCAR-8 ovarian; HT29 colon; HCC-2998 colon; RXF 393 renal; SNB-19 CNS; 786-0 renal; KM12 colon.
What all share (test): NCI tumour cell line growth inhibition, 48 h

Structures are written as SMILES.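 Test compounds were applied to cells in 96-well plates for 48 hours at 5 doses. TGI marks complete inhibition of growth.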

Consider `O=C1C=C2C(=NC34CCCCC3C(c3ccccc3)C3=C(c5ccccc5CC3)N24)c2ccccc21` (stereo not given), for which the TGI with EKVX NSCLC, with UACC-62 melanoma, with NCI-H226 lung, in the experiment on HS 578T breast, in the experiment on SF-295 CNS and in the experiment on HOP-62 NSCLC was more than 10 µM each time. For the same compound, the TGI in the experiment with SF-539 CNS, in the experiment with TK-10 renal, in the experiment on MOLT-4 leukemia, in the experiment with MCF7 breast, in the experiment with LOX IMVI melanoma and in the experiment with COLO 205 colon was more than 10 µM throughout. In addition, the TGI in the experiment on U251 CNS, with OVCAR-8 ovarian, in the experiment on HT29 colon, in the experiment with HCC-2998 colon, in the experiment with RXF 393 renal and in the experiment on SNB-19 CNS was more than 10 µM each time. Moreover, the TGI in the experiment on 786-0 renal and in the experiment with KM12 colon was more than 10 µM each time.
Turning to `O=c1cc(NNc2ccccc2)[nH]c(=S)[nH]1`, the TGI in the experiment on EKVX NSCLC, in the experiment on UACC-62 melanoma, in the experiment on NCI-H226 lung, in the experiment on HS 578T breast, with SF-295 CNS and in the experiment with HOP-62 NSCLC was more than 100 µM throughout. In addition, the TGI with SF-539 CNS was more than 100 µM; in the experiment with TK-10 renal, 90.6 µM; in the experiment with MOLT-4 leukemia it was 91.7 µM; in the experiment with MCF7 breast, more than 100 µM; with LOX IMVI melanoma, 31.3 µM; in the experiment on COLO 205 colon, more than 100 µM. Further, the TGI with U251 CNS is more than 100 µM; in the experiment on OVCAR-8 ovarian, more than 100 µM; with HT29 colon it was more than 100 µM; with HCC-2998 colon, 50.5 µM; with RXF 393 renal it was more than 100 µM; with SNB-19 CNS, more than 100 µM. In addition, the TGI in the experiment on 786-0 renal and with KM12 colon was more than 100 µM each time.
Turning to `Cc1nc2cccc(F)c2c(=O)n1C1CCCCNC1=O` (stereo not given), the TGI in the experiment with EKVX NSCLC, in the experiment with UACC-62 melanoma, in the experiment on NCI-H226 lung, in the experiment on HS 578T breast, with SF-295 CNS and with HOP-62 NSCLC was more than 10 µM throughout. The TGI in the experiment with SF-539 CNS, in the experiment on TK-10 renal, with MOLT-4 leukemia, with MCF7 breast, with LOX IMVI melanoma and in the experiment on COLO 205 colon was more than 10 µM throughout. The TGI in the experiment on U251 CNS, in the experiment on OVCAR-8 ovarian, in the experiment on HT29 colon, with HCC-2998 colon, in the experiment with RXF 393 renal and with SNB-19 CNS was more than 10 µM throughout. The TGI with 786-0 renal and in the experiment with KM12 colon was more than 10 µM throughout.
On to `O=CC(=C(I)I)c1ccccc1`, for which the TGI with EKVX NSCLC was determined as 36.9 µM; in the experiment with UACC-62 melanoma it was 17.5 µM; in the experiment with NCI-H226 lung, 32 µM; in the experiment with HS 578T breast, 12.6 µM; with SF-295 CNS it was 31.2 µM; in the experiment on HOP-62 NSCLC, 19.5 µM. Further, the TGI with SF-539 CNS came out at 5.17 µM; with TK-10 renal, 5.83 µM; in the experiment on MOLT-4 leukemia, 0.944 µM; in the experiment with MCF7 breast, 16.2 µM; with LOX IMVI melanoma, 4.06 µM; in the experiment on COLO 205 colon, 6.79 µM. Also, the TGI was 14.5 µM with U251 CNS; 6.95 µM in the experiment with OVCAR-8 ovarian; more than 32.5 µM in the experiment with HT29 colon; 26.4 µM in the experiment on HCC-2998 colon; 3.58 µM in the experiment on RXF 393 renal; 21.1 µM in the experiment on SNB-19 CNS. Besides, the figures for the TGI in the experiment on 786-0 renal and in the experiment with KM12 colon were 5.78 µM and 12.7 µM, respectively.
As to `O=C(CCCN1CCC2(CC1)OC(=O)N(c1ccccc1)C2=O)c1ccccc1`, the TGI in the experiment with EKVX NSCLC, in the experiment with UACC-62 melanoma, in the experiment with NCI-H226 lung, in the experiment on HS 578T breast, in the experiment with SF-295 CNS and in the experiment on HOP-62 NSCLC was more than 100 µM each time. The TGI with SF-539 CNS, in the experiment on TK-10 renal, with MOLT-4 leukemia, in the experiment with MCF7 breast, in the experiment with LOX IMVI melanoma and in the experiment on COLO 205 colon was more than 100 µM in each case. The TGI in the experiment with U251 CNS, in the experiment on OVCAR-8 ovarian, with HT29 colon, in the experiment on HCC-2998 colon, in the experiment on RXF 393 renal and in the experiment on SNB-19 CNS was more than 100 µM in each case. The TGI with 786-0 renal and with KM12 colon was more than 100 µM in each case.
With `CCC1NC(=O)C1NC(=O)OC` (stereo not given), the TGI in the experiment with EKVX NSCLC, with UACC-62 melanoma, in the experiment with NCI-H226 lung, with HS 578T breast, with SF-295 CNS and in the experiment on HOP-62 NSCLC was more than 100 µM in each case. Moreover, the TGI with SF-539 CNS, in the experiment on TK-10 renal, in the experiment on MOLT-4 leukemia, in the experiment with MCF7 breast, in the experiment on LOX IMVI melanoma and with COLO 205 colon was more than 100 µM throughout. Further, the TGI in the experiment with U251 CNS, in the experiment with OVCAR-8 ovarian, in the experiment on HT29 colon, with HCC-2998 colon, in the experiment on RXF 393 renal and in the experiment with SNB-19 CNS was more than 100 µM in each case. For the same compound, the TGI in the experiment on 786-0 renal and with KM12 colon was more than 100 µM throughout.
